Assay results published in patent publication US5028733A, “Prostaglandins” (National Research Development Corporation, priority 1980, dated 1991).

Experiments:
Type in all cases: cell-based
rabbit aorta [1] = experiment: Rabbit aorta strip, antagonism of contraction by 11,9-(epoxymethano) PGH2 (affinity constant KB); settings: for Kb: vs 11,9-(epoxymethano) PGH2, 37° C, compound added 30 min before, Gaddum-Schild, read-out: Affinity Constants, Rabbit Aorta (KB) (converted)
Procedure: Spiral strips of thoracic aorta are suspended in Kreb's-Henseleit solution and aerated with 95% O2 /5% CO2 at 37° C. Tension changes are recorded with a Glass FTO3 force transducer. Initially, cumulative dose response curves to 11,9-(epoxymethano) PGH2 (2×10^-9, 1×10^-8, 5×10^-8 and 2.5×10^-7 M) are obtained. In a second experiment the individual compounds are added 30 minutes previous to the addition of the series of agonist doses. In the case of each compound, the affinity constant, KB, for the compound is calculated according to the Gaddum - Schild Equation (based on Law of Mass Action).
(§1) [B]=molar concentration of compound

human platelets = target: T1, human platelets (Homo sapiens, UniProt P21731); experiment: Human platelet system, antagonism of aggregation by 11,9-(epoxymethano) PGH2 (affinity constant KB); settings: for Kb: vs 11,9-(epoxymethano) PGH2, compound added 5 min before, Gaddum-Schild, read-out: Affinity Constants, Human Platelets (KB) (converted)
T1 construct: Platelet-rich plasma is obtained from fresh, citrated human blood; endogenous in cells; host or cells: human platelets in platelet-rich plasma
T1 sequence (P21731 1-343): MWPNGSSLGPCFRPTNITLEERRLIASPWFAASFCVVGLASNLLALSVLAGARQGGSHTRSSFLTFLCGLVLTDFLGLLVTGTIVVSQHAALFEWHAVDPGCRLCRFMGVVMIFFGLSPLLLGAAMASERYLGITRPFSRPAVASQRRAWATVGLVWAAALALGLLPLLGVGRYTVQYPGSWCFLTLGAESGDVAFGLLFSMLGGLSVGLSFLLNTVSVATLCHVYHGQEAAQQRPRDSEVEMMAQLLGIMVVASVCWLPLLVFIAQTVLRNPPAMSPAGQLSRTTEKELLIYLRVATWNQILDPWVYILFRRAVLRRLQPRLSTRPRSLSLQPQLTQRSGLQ
Procedure: Platelet-rich plasma is obtained from fresh, citrated human blood. Addition of the 11,9-(epoxymethano) PGH2 (1×10^-7 to 5×10^-7 M) causes immediate aggregation recorded as an increase in light transmission (600 nm). In a second experiment the individual compounds are added five minutes previous to the addition of the PGH2 analogue. The dose of the PGH2 analogue added is then increased to a level which gives a similar response to that obtained in the absence of antagonist. The affinity constant, KB, for the compound is calculated according to the Gaddum - Schild Equation (based on Law of Mass Action).
as §1

platelet = experiment: Block of the aggregatory action of arachidonic acid on platelets; settings: in words
rabbit aorta [2] = experiment: Block of the contractile action of noradrenaline in the rabbit aorta strip test; settings: in words

| Kb (human platelets) | Structure (SMILES) | Kb (rabbit aorta [1]) | also measured |
| --- | --- | --- | --- |
| 2860 nM | CC1(C)[C@H]2C[C@H](C=NNC(=S)Nc3ccccc3)[C@@H](C/C=C\CCCC(=O)O)[C@@H]1C2 | 1670 nM | – |
| 909 nM | CC(=NNC(=O)Nc1ccccc1)[C@H]1C[C@H]2C[C@@H]([C@@H]1C/C=C\CCCC(=O)O)C2(C)C | 357 nM | – |
| – | O=C(O)CCCC=CCC1C(O)CCC1C=NOCc1ccc(F)cc1 (centres unmarked) | 2500 nM | – |
| 263 nM | O=C(O)CCC/C=C\C[C@H]1[C@H]2CC[C@H](C2)[C@@H]1C=NNC(=S)Nc1ccccc1 (relative stereo) | 526 nM | – |
| 45.5 nM | CC(=NNC(=S)Nc1cccc(F)c1)[C@H]1[C@@H]2CC[C@@H](C2)[C@@H]1C/C=C\CCCC(=O)O (relative stereo) | 70.4 nM | – |
| 118 nM | COc1cccc(NC(=S)NN=C(C)[C@H]2[C@@H]3CC[C@@H](C3)[C@@H]2C/C=C\CCCC(=O)O)c1 (relative stereo) | 95.2 nM | – |
| 102 nM | COc1ccc(NC(=S)NN=C(C)[C@H]2[C@@H]3CC[C@@H](C3)[C@@H]2C/C=C\CCCC(=O)O)cc1 (relative stereo) | 213 nM | – |
| 189 nM | CC(=NNC(=S)Nc1cccc(C(F)(F)F)c1)[C@H]1[C@@H]2CC[C@@H](C2)[C@@H]1C/C=C\CCCC(=O)O (relative stereo) | 118 nM | – |
| – | O=C(O)CCC/C=C\C[C@H]1C2CCC(CC2)[C@@H]1C=NNC(=O)Nc1ccccc1 (relative stereo) | 833 nM | – |
| 55.6 nM | COc1ccc(NC(=O)NN=C(C)[C@H]2C3CCC(CC3)[C@@H]2C/C=C\CCCC(=O)O)cc1 (relative stereo) | 55.6 nM | – |
| 47.6 nM | CC(=NNC(=S)Nc1ccccc1)[C@H]1C2CCC(CC2)[C@@H]1C/C=C\CCCC(=O)O (relative stereo) | 83.3 nM | – |
| 667 nM | CC(=NNC(=S)Nc1cccnc1)[C@H]1C2CCC(CC2)[C@@H]1C/C=C\CCCC(=O)O (relative stereo) | 256 nM | – |
| 500 nM | O=C(O)CCC/C=C\C[C@@H]1CC=CC[C@H]1C=NNC(=S)Nc1ccccc1 (relative stereo) | 1100 nM | – |
| 3450 nM | Cn1c(=NN=C[C@H]2[C@@H]3CC[C@@H](C3)[C@@H]2C/C=C\CCCC(=O)O)sc2ccccc21 (relative stereo) | 1520 nM | – |
| – | O=C(O)CCC/C=C\C[C@H]1[C@H]2CC[C@H](C2)[C@@H]1C=NN=C(c1ccccc1)c1ccccc1 (relative stereo) | 667 nM | – |
| 5560 nM | O=C(O)CCC/C=C\C[C@H]1[C@H]2CC[C@H](C2)[C@@H]1C=NNc1nc2ccccc2o1 (relative stereo) | 500 nM | – |
| – | O=C(O)CCC/C=C\C[C@H]1[C@H]2CC[C@H](C2)[C@@H]1C=NNC(=O)CN(Cc1ccccc1)Cc1ccccc1 (relative stereo) | 833 nM | – |
| 667 nM | Cc1ccc(S(=O)(=O)NN=C[C@H]2[C@@H]3CC[C@@H](C3)[C@@H]2C/C=C\CCCC(=O)O)cc1 (relative stereo) | 345 nM | – |
| 4350 nM | O=C(O)CCC/C=C\C[C@H]1[C@H]2CC[C@H](C2)[C@@H]1C=NOCCOC(c1ccccc1)c1ccccc1 (relative stereo) | 10000 nM | – |
| 8330 nM | O=C(O)CCC/C=C\C[C@@H]1CC=CC[C@H]1C=NOCc1ccc(F)cc1 (relative stereo) | 385 nM | – |
| – | O=C(O)CCC/C=C\C[C@H]1[C@H]2CC[C@H](C2)[C@@H]1C=NNC(=S)NCc1ccccc1 (relative stereo) [Example 1, 5-endo-(6'-Carboxyhex-2'Z-enyl)-6-exo-[N-(benzylthiocarbamoyl)-hydrazonomethyl]-bicyclo [2,2,1] heptane] | – | antagonist in the rabbit aorta strip test (rabbit aorta [1]; in words): pure antagonists in the rabbit aorta strip test; antagonist in the platelet test (human platelets; in words): antagonists in the platelet test; aggregatory action of arachidonic acid (platelet): block the aggregatory action of arachidonic acid; contractile action of noradrenaline (α-adrenoceptors) (rabbit aorta [2]): do not block the contractile action of noradrenaline |
| 256 nM | CCC(=NNC(=S)Nc1ccccc1)[C@H]1[C@@H]2CC[C@@H](C2)[C@@H]1C/C=C\CCCC(=O)O (relative stereo) [Example 3, 5-endo-(6'-Carboxyhex-2'Z-enyl)-6-exo-{1'-[N-(phenylthiocarbamoyl)-hydrazono]-propyl}-bicyclo [2,2,1] heptane] | – | – |
| 1280 nM | O=C(O)CCC/C=C\C[C@H]1[C@H]2CC[C@H](C2)[C@@H]1C=NNC(=S)NCc1ccccc1 (relative stereo) [drawing 41] | 526 nM | – |
| 50 nM | CC(=NNC(=S)Nc1ccccc1)[C@H]1[C@@H]2CC[C@@H](C2)[C@@H]1C/C=C\CCCC(=O)O (relative stereo) [drawing 42] | 90.9 nM | – |
| 2000 nM | CC1(C)[C@H]2C[C@H](C/C=C\CCCC(=O)O)C(C=NNC(=O)Nc3ccccc3)[C@@H]1C2 (single isomer, unassigned) | 333 nM | – |
